# Assay results: patent publication US20230061608A1, “SUBSTITUTED QUINOLINONYL PIPERAZINE COMPOUNDS USEFUL AS T CELL ACTIVATORS” (BRISTOL-MYERS SQUIBB COMPANY, priority 2019, published 2023)
# What was measured:
# [1] = biological target: T1, DGKζ (Homo sapiens, UniProt Q13574); test: In vitro DGK inhibition assay, DGKζ LIPGLO (extruded liposomes); format: biochemical; details: liposome (LIPGLO) assay, 150 μM ATP, 5 nM enzyme
# T1 construct: Full length human DGKα and DGKζ, each expressed containing a TVMV-cleavable C-terminal Hexa-His tag; made in house; host or cells: Sf9 insect cells, baculovirus (Bac-to-Bac)
# Method: (§1) Assay 1: In vitro DGK Inhibition Assays—Method A
# (§2) The DGKα and DGKζ reactions were performed using extruded liposomes (DGKα and DGKζ LIPGLO assays). The reactions were carried out in 50 mM MOPS pH 7.5, 100 mM NaCl, 10 mM MgCl2, 1 μM CaCl2), and 1 mM DTT (assay buffer). The lipid substrate concentrations were 2 mM PS, 0.25 mM DAG, and 2.75 mM PC for the extruded liposome reactions. The reactions were carried out in 150 μM ATP. The enzyme concentrations for the DGKα and DGKζ were 5 nM.
# (§3) The compound inhibition studies were carried out as follows: 50 nL droplets of each test compound (top concentration 10 mM with 11 point, 3-fold dilution series for each compound) solubilized in DMSO were transferred to wells of a white 1536 well plate (Corning 3725). A 5 mL enzyme/substrate solution at 2× final reaction concentration was prepared by combining 2.5 mL 4× enzyme solution (20 nM DGKα or DGKζ (prepared as described below) in assay buffer) and 2.5 mL of 4× liposome solution (compositions described below) and incubated at room temperature for 10 minutes. Next, 1 μL 2× enzyme/substrate solution was added to wells containing the test compound and reactions were initiated with the addition of 1 μL 300 uM ATP. The reactions were allowed to proceed for 1 hr, after which 2 μL Glo Reagent (Promega V9101) was added and incubated for 40 minutes. Next, 4 μL Kinase Detection Reagent was added and incubated for 30 minutes. Luminescence was recorded using an EnVision microplate reader. The percent inhibition was calculated from the ATP conversion generated by no enzyme control reactions for 100% inhibition and vehicle-only reactions for 0% inhibition. The compounds were evaluated at 11 concentrations to determine IC50.
# (§4) The lipid composition was 5 mol % DAG (Avanti 8008110), 40 mol % PS (Avanti 840035P), and 55 mol % PC (Avanti 850457) at a total lipid concentration of 15.2 mg/mL for the 4× liposome solution. The PC, DAG, and PS were dissolved in chloroform, combined, and dried in vacuo to a thin film. The lipids were hydrated to 20 mM in 50 mM MOPS pH 7.5, 100 mM NaCl, 5 mM MgCl2, and were freeze-thawed five times. The lipid suspension was extruded through a 100 nm polycarbonate filter eleven times. Dynamic light scattering was carried out to confirm liposome size (50-60 nm radius). The liposome preparation was stored at 4° C. for as long as four weeks.
# (§5) Human DGK-alpha-TVMV-His-pFBgate and human DGK-zeta-transcript variant-2-TVMV-His-pFBgate baculovirus samples were generated using the Bac-to-Bac baculovirus expression system (Invitrogen) according to the manufacturer's protocol. The DNA used for expression of DGK-alpha and DGK-zeta have SEQ ID NOs: 1 and 3, respectively. Baculovirus amplification was achieved using infected Sf9 cells at 1:1500 virus/cell ratios, and grown for 65 hours at 27° C. post-transfection.
# (§6) Full length human DGKα and DGKζ, each expressed containing a TVMV-cleavable C-terminal Hexa-His tag sequence (SEQ ID NOs: 2 and 4, respectively) and produced as described above, were purified from Sf9 baculovirus-infected insect cell paste. The cells were lysed using nitrogen cavitation method with a nitrogen bomb (Parr Instruments), and the lysates were clarified by centrifugation. The clarified lysates were purified to ˜90% homogeneity, using three successive column chromatography steps on an ÄKTA Purifier Plus system. The three steps column chromatography included nickel affinity resin capture (i.e. HisTrap FF crude, GE Healthcare), followed by size exclusion chromatography (i.e. HiLoad 26/600 Superdex 200 prep grade, GE Healthcare for DGK-alpha, and HiPrep 26/600 Sephacryl S 300_HR, GE Healthcare for DGK-zeta). The third step was ion exchange chromatography, and differed for the two isoforms. DGKα was polished using Q-Sepharose anion exchange chromatography (GE Healthcare). DGKζ was polished using SP Sepharose cation exchange chromatography (GE Healthcare). The proteins were delivered at concentrations of ≥2 mg/mL. […]
# [2] = biological target: T2, DGKα (Homo sapiens, UniProt P23743); test: In vitro DGK inhibition assay, DGKα LIPGLO (extruded liposomes); format: biochemical; details: liposome (LIPGLO) assay, 150 μM ATP, 5 nM enzyme
# T2 construct: made in house; host or cells: Sf9 insect cells, baculovirus (Bac-to-Bac)
# Method: as §1, §2, §3, §4, §5, §6
# T2 sequence (P23743 whole entry): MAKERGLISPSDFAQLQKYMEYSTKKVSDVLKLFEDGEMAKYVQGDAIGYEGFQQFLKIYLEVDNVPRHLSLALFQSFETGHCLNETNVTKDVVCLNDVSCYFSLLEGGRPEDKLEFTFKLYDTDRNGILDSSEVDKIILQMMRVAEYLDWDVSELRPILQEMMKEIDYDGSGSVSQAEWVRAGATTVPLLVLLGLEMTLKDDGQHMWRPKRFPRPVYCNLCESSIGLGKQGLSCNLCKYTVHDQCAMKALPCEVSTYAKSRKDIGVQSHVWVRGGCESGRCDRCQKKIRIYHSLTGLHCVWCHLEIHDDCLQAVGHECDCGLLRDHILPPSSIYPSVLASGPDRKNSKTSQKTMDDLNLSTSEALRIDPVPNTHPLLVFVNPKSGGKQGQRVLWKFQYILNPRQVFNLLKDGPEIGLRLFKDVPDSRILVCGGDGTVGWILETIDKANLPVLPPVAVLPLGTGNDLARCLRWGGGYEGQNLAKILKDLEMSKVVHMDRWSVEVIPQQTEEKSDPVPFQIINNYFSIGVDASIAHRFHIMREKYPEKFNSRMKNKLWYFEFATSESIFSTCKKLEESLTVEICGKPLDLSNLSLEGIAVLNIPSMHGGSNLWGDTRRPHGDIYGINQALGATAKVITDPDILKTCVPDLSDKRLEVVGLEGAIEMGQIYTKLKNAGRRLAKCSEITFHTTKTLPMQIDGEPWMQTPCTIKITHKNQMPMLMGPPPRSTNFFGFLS
# T1 sequence (Q13574 1-929 isoform Q13574-4): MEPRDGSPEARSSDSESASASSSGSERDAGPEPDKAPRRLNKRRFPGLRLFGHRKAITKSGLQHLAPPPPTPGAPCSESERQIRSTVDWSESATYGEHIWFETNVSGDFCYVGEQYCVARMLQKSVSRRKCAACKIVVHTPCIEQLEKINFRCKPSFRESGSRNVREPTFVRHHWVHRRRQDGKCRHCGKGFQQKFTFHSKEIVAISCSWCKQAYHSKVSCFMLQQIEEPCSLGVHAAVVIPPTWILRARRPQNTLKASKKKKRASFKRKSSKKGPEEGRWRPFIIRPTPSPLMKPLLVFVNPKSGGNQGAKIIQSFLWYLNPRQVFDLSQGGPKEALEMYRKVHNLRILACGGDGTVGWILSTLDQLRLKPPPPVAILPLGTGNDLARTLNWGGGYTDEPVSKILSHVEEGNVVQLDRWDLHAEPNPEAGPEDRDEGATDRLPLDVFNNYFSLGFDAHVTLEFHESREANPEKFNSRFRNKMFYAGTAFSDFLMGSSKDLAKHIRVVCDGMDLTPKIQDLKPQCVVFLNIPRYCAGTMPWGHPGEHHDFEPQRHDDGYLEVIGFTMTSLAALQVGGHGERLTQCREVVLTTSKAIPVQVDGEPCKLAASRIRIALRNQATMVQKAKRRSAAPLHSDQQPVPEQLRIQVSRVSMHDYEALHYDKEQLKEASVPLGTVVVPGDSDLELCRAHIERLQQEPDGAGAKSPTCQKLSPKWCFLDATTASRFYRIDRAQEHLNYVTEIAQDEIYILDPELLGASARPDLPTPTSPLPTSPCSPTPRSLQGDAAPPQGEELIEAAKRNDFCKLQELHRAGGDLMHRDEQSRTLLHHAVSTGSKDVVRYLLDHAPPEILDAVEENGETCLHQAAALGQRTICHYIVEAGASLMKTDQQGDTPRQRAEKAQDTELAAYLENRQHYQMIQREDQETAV
SMILES,IC50 [1] [µM],IC50 [2] [µM]
"C[C@@H]1CN(c2c(C#N)c(=O)n(C)c3ccccc23)[C@@H](C)CN1C(c1ccc(F)cc1)c1ccc(F)cc1 (stereo in doubt) [Example 6, 4-[(2S,5R)-4-[bis(4-fluorophenyl)methyl]-2,5-dimethylpiperazin-1-yl]-1-methyl-2-oxo-1,2-dihydroquinoline-3-carbonitrile]",> 27,0.7
"Cc1cc(F)cc(CN2CCN(c3c(-c4ccncc4)c(=O)n(C)c4ccc(F)cc34)CC2)c1 [Example 2, 6-fluoro-4-{4-[(3-fluoro-5-methylphenyl)methyl]piperazin-1-yl}-1-methyl-3-(pyridin-4-yl)-1,2-dihydroquinolin-2-one]",35,0.051
"CCn1ccc2c(CN3CCN(c4c([N+](=O)[O-])c(=O)n(C)c5ccc(F)cc45)CC3)cccc21 [Example 4, 4-{4-[(1-ethyl-1H-indol-4-yl)methyl]piperazin-1-yl}-6-fluoro-1-methyl-3-nitro-1,2-dihydroquinolin-2-one]",7.9,0.15
"Cn1c(=O)c([N+](=O)[O-])c(N2CCN(Cc3ccccc3)C(=O)C2)c2cc(F)ccc21 [Example 5, 4-(4-benzyl-3-oxopiperazin-1-yl)-6-fluoro-1-methyl-3-nitro-1,2-dihydroquinolin-2-one]",> 240,0.5

# The remaining lines, values ahead:
IC50 [1] [µM],IC50 [2] [µM],SMILES
> 250,1.3,"C[C@@H]1CN(c2cc(=O)n(C)c3ccc(C#N)cc23)[C@@H](C)CN1C(c1ccc(F)cc1)c1ccc(F)cc1 (stereo in doubt) [Example 7, 4-[(2S,5R)-4-[bis(4-fluorophenyl)methyl]-2,5-dimethylpiperazin-1-yl]-1-methyl-2-oxo-1,2-dihydroquinoline-6-carbonitrile]"
41,0.0073,"Cn1c(=O)c([N+](=O)[O-])c(N2CCN(Cc3cccc(F)c3)CC2)c2cc(F)ccc21 [Example 1, 6-fluoro-4-{4-[(3-fluorophenyl)methyl]piperazin-1-yl}-1-methyl-3-nitro-1,2-dihydroquinolin-2-one]"
82,39,"COc1ccc2c(c1)c(N1CCN(Cc3cccc4ccccc34)CC1)c([N+](=O)[O-])c(=O)n2C [Example 8, 6-methoxy-1-methyl-4-{4-[(naphthalen-1-yl)methyl]piperazin-1-yl}-3-nitro-1,2-dihydroquinolin-2-one]"
> 240,90,"Cn1c(=O)c(CO)c(N2CCN(C(c3ccccc3)c3ccccc3)CC2)c2ccccc21 [Example 11, 4-[4-(diphenylmethyl)piperazin-1-yl]-3-(hydroxymethyl)-1-methyl-1,2-dihydroquinolin-2-one]"
